Assay [1] deals with T1, NhAAT.
T1 construct: gene AAT; E. coli BL21 pLysS; homodimer predicted; catalytic Lys267; primers imply N-terminus MTTTAMAP and C-terminus ETVVKQE
Description: coupled malate dehydrogenase assay, NADH decrease at […] nm, double reciprocal plot. The following applies: reverse reaction; co-substrate 20 mM α-ketoglutarate; 50 µM PLP; 0.1 M sodium phosphate; optimal conditions pH 7.5, 45 °C; L-aspartic acid 0-100 mM. The format is biochemical, Neoporphyra haitanensis.

The subject of assay [2] is T2, NhAAT.
T2 construct: gene AAT
The following applies: forward reaction; co-substrate 20 mM oxaloacetic acid; 50 µM PLP; 0.1 M sodium phosphate; optimal conditions pH 7.5, 45 °C; L-glutamic acid 0-100 mM.

Read-outs that look alike come from different tables or passages of the source.

The values below come from publication PMC10029208, “Isolation and functional verification of an aspartate aminotransferase gene from Neoporphyra haitanensis” (BMC Plant Biology, 2023).

As to `N[C@@H](CC(=O)O)C(=O)O` [L-aspartic acid], the Km in the assay with NhAAT [1] turned out to be 6.16 mM.
For the compound `N[C@@H](CCC(=O)O)C(=O)O` [L-glutamic acid], the Km in the assay with NhAAT [2] amounted to 5.67 mM.
